Patent US11446298B2, “Pyrimidine derivatives” (Idorsia Pharmaceuticals Ltd, priority 2017, dated 2022)

How the values were obtained:
Format in all cases: cell-based
PTGER2 (EP2) = target: T1, PTGER2 (EP2) (Homo sapiens, UniProt P43116); assay: hEP2 b-Arrestin Assay (PathHunter HEK 293 PTGER2 b-arrestin cells, PGE2 5 μM); conditions: antagonistic activity, beta-arrestin assay, HEK 293 PTGER2 cells, PGE2 5 μM (EC80); read-out: hEP2 b-arr IC50
T1 construct: host or cells: HEK 293 (PathHunter, stably transfected)
Method in brief: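 PathHunter enzyme-fragment complementation in HEK 293 cells: compounds (10 μM-2 nM or 1 μM-0.2 nM) pre-incubated 15 min at 37 °C, then 5 μM PGE2 (EC80) for 120 min at 37 °C. Chemiluminescence read after 1 h detection; IC50 from duplicate dose-response fits, means of repeats.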

PTGER4 (EP4) = target: T2, PTGER4 (EP4) (Homo sapiens, UniProt P35408); assay: hEP4 b-Arrestin Assay (PathHunter HEK 293 PTGER4 b-arrestin cells, PGE2 20 nM); conditions: antagonistic activity, beta-arrestin assay, HEK 293 PTGER4 cells, PGE2 20 nM (EC80); read-out: hEP4 b-arr IC50
T2 construct: host or cells: HEK 293 (PathHunter, stably transfected)
Method in brief: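 PathHunter HEK 293 EP4 b-arrestin enzyme-complementation cells preincubated 15 min at 37° C with compound (10 μM-2 nM or 1 μM-0.2 nM), then stimulated 120 min with 20 nM PGE2 (EC80). Chemiluminescence read; IC50 from duplicate % activity vs DMSO, one-site fit, averaged over repeats.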

EP2 = target: T3, EP2 (Homo sapiens, UniProt P43116); assay: hEP2 cAMP Assay (SF295 glioblastoma cells, HTRF cAMP, PGE2 75 nM); conditions: antagonistic activity, PGE2 75 nM (EC80)
T3 construct: SF295 glioblastoma cells express high endogenous EP2 and no EP4; host or cells: SF295 glioblastoma cells
Method in brief: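 IC50 values derive from duplicate-point curves of percent cAMP relative to DMSO, read by HTRF (665/620 nm) against a cAMP calibrator. Compounds (30 μM to 0.01 nM ranges) were given 45 min at room temperature before 30 min with 75 nM PGE2, in EP2-only SF295 cells with 2 mM IBMX.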

EP4 = target: T4, EP4 (Homo sapiens, UniProt P35408); assay: hEP4 cAMP Assay (BT549 breast cancer cells, HTRF cAMP, PGE2 6 nM); conditions: antagonistic activity, PGE2 6 nM (EC80)
T4 construct: BT549 breast cancer cells, express high endogenous EP4 levels and very low EP2 levels; host or cells: BT549 breast cancer cells
Method in brief: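 Antagonism is measured as inhibition of PGE2 (6 nM final, EC80) cAMP accumulation in EP4-expressing BT549 breast cancer cells, after a 45 min room-temperature compound pre-incubation and 30 min agonist step, with 2 mM IBMX present. HTRF ratio gives cAMP relative to DMSO; IC50 fitted, means over repeat runs.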

T1 sequence (P43116 whole entry): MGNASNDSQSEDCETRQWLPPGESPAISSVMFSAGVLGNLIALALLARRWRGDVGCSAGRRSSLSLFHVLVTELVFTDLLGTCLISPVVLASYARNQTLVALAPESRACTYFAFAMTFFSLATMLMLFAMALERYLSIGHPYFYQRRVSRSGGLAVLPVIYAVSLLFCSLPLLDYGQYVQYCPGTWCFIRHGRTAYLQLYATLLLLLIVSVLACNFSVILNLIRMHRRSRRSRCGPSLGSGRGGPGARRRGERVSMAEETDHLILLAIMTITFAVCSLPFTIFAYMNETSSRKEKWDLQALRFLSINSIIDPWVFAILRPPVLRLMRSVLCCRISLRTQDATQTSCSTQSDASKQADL
T3 sequence (P43116 whole entry): as above
T2 sequence (P35408 whole entry): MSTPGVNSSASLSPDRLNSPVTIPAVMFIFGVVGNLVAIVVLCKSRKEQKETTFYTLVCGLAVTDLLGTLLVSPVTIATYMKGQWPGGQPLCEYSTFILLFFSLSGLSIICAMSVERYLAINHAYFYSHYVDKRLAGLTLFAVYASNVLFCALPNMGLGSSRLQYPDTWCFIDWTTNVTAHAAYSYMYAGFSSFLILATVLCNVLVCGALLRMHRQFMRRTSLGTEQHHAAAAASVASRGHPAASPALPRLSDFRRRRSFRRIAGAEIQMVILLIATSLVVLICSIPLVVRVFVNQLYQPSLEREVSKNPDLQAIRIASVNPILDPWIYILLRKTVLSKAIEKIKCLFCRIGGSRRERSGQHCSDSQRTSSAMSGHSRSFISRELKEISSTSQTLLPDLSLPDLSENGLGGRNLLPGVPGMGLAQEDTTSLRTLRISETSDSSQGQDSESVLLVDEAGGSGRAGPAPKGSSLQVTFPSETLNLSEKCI
T4 sequence (P35408 whole entry): as above

Row | IC50 (PTGER2 (EP2)) [nM] | IC50 (PTGER4 (EP4)) [nM] | IC50 (EP2) [nM] | IC50 (EP4) [nM] | SMILES
1 | 41 | 50 | 56 | 51 | CCOc1cc(-c2cc(NCCc3c(N)ccc4ccccc34)ncn2)sc1C(=O)O [Example 78, 5-{6-[2-(2-Amino-naphthalen-1-yl)-ethylamino]-pyrimidin-4-yl}-3-ethoxy-thiophene-2-carboxylic acid]
2 | 110 | 311 | 85 | 244 | CCOc1cc(-c2cc(NCCc3cccc4cc[nH]c34)ncn2)sc1C(=O)O [Example 46, 3-Ethoxy-5-{6-[2-(1H-indol-7-yl)-ethylamino]-pyrimidin-4-yl}-thiophene-2-carboxylic acid]
3 | 3 | 24 | 10 | 86 | CCOc1cc(-c2cc(NCCc3c(OC)ccc4ccccc34)ncn2)sc1C(=O)NS(C)(=O)=O [Example 136, N-(3-Ethoxy-5-{6-[2-(2-methoxy-naphthalen-1-yl)-ethylamino]-pyrimidin-4-yl}-thiophene-2-carbonyl)-methanesulfonamide]
4 | 15 | 145 | 15 | 48 | CCOc1cc(-c2cc(NCCc3cccc4c3ccn4C)ncn2)sc1C(=O)O [Example 25, 3-Ethoxy-5-{6-[2-(1-methyl-1H-indol-4-yl)-ethylamino]-pyrimidin-4-yl}-thiophene-2-carboxylic acid]
5 | 115 | 113 | 76 | 92 | CCOc1cc(-c2cc(NCCc3cccc4ccoc34)ncn2)sc1C(=O)O [Example 35, 5-[6-(2-Benzofuran-7-yl-ethylamino)-pyrimidin-4-yl]-3-ethoxy-thiophene-2-carboxylic acid]
6 | 54 | 88 | 73 | 157 | CCOc1cc(-c2cc(NCCc3c(OC)ccc4ccccc34)ncn2)sc1CCC(=O)O [Example 131, 3-(3-Ethoxy-5-{6-[2-(2-methoxy-naphthalen-1-yl)-ethylamino]-pyrimidin-4-yl}-thiophen-2-yl)-propionic acid]
7 | 303 | 293 | 248 | 239 | CCOc1cc(-c2cc(NCCc3cccc4cccnc34)ncn2)sc1C(=O)O [Example 23, 3-Ethoxy-5-[6-(2-quinolin-8-yl-ethylamino)-pyrimidin-4-yl}-thiophene-2-carboxylic acid]
8 | 186 | 48 | 526 | 28 | CCOc1cc(-c2cc(NCCc3cccc4ccncc34)ncn2)sc1-c1noc(=O)[nH]1 [Example 139, 3-{3-Ethoxy-5-[6-(2-isoquinolin-8-yl-ethylamino)-pyrimidin-4-yl]-thiophen-2-yl}-[1,2,4]oxadiazol-5(4H)-one]
9 | 7 | 24 | 3 | 22 | CCOc1cc(-c2cc(NCCc3c(C#N)ccc4ccccc34)ncn2)sc1C(=O)O [Example 68, 5-{6-[2-(2-Cyano-naphthalen-1-yl)-ethylamino]-pyrimidin-4-yl}-3-ethoxy-thiophene-2-carboxylic acid]
10 | 85 | 1690 | 95 | 910 | CCOc1cc(-c2cc(NCCc3cccc4ccccc34)ncn2)ccc1C(=O)O [Example 6, 2-Ethoxy-4-[6-(2-naphthalen-1-yl-ethylamino)-pyrimidin-4-yl]-benzoic acid]
11 | 44 | 181 | 130 | 110 | CCOc1cc(-c2cc(NCCc3cccc4c(C)cccc34)ncn2)ccc1CC(=O)O [Example 164, (2-Ethoxy-4-{6-[2-(5-methyl-naphthalen-1-yl)-ethylamino]-pyrimidin-4-yl}-phenyl)-acetic acid]
12 | 59 | 282 | 324 | 22 | CCOc1cc(-c2cc(NCCc3cccc4ncccc34)ncn2)sc1-c1noc(=O)[nH]1 [Example 188, 3-{3-Ethoxy-5-[6-(2-quinolin-5-yl-ethylamino)-pyrimidin-4-yl]-thiophen-2-yl}-[1,2,4]oxadiazol-5(4H)-one]
13 | 33 | 314 | 79 | 73 | CCOc1cc(-c2cc(NCCc3cccc4ccsc34)ncn2)sc1C(=O)O [Example 103, 5-[6-(2-Benzo[b]thiophen-7-yl-ethylamino)-pyrimidin-4-yl]-3-ethoxy-thiophene-2-carboxylic acid]
14 | 43 | 1910 | 143 | 1040 | COc1ccc2ccccc2c1CCNc1cc(-c2cc(OCCN(C)C)c(C(=O)O)s2)ncn1 [Example 157, 3-(2-Dimethylamino-ethoxy)-5-{6-[2-(2-methoxy-naphthalen-1-yl)-ethylamino]-pyrimidin-4-yl}-thiophene-2-carboxylic Acid]
15 | 6 | 41 | 22 | 79 | CCOc1cc(-c2cc(NCCc3c(OC)ccc4ccccc34)ncn2)ccc1NC(=O)C(=O)O [Example 133, N-(2-Ethoxy-4-{6-[2-(2-methoxy-naphthalen-1-yl)-ethylamino]-pyrimidin-4-yl}-phenyl)-oxalamic acid]
16 | 17 | 203 | 15 | 96 | CCOc1cc(-c2cc(NCCc3cccc4ccn(C)c34)ncn2)sc1C(=O)O [Example 24, 3-Ethoxy-5-{6-[2-(1-methyl-1H-indol-7-yl)-ethylamino]-pyrimidin-4-yl}-thiophene-2-carboxylic acid]
17 | 27 | 311 | 47 | 100 | CCOc1cc(-c2cc(NCCc3c(C)ccc4ncccc34)ncn2)sc1C(=O)O [Example 2, 3-Ethoxy-5-{6-[2-(6-methyl-quinolin-5-yl)-ethylamino]-pyrimidin-4-yl}-thiophene-2-carboxylic acid]
18 | 50 | 8 | 50 | 6 | CCOc1cc(-c2cc(NCCc3ccc(C(F)F)c4ccccc34)ncn2)sc1C(=O)O [Example 72, 5-{6-[2-(4-Difluoromethyl-naphthalen-1-yl)-ethylamino]-pyrimidin-4-yl}-3-ethoxy-thiophene-2-carboxylic acid]
